For 21 molecules, T/C results are on record in PubChem BioAssay AID248 (DTP/NCI, 2004).

“And” between values parts separate entries of the source, which are not always exact repeats. Equal values may be shown once. Toxic doses and inconclusive results are not listed.

The test system of the test is L1210 leukemia ip in BDF1 mice, survival T/C. Description: NCI In Vivo Anticancer Drug Screen. Data for tumor model L1210 Leukemia (intraperitoneal) in B6D2F1 (BDF1) mice. The note with it: endpoint: mean survival time, higher = longer survival. A digest of the protocol:
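Value reflects the ratio of survival in compound-treated mice to survival in vehicle-treated controls, with both groups carrying the same transplanted tumor.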

The mark [1] stands for this setting: dose: 100.0 mg/kg/injection, schedule: Q04DX002 (ip), vehicle: Klucel (hydroxypropylcellulose) (HPC).
[2] abbreviates: dose: 200.0 mg/kg/injection, schedule: Q04DX002 (ip), vehicle: Klucel (hydroxypropylcellulose) (HPC).
Where [3] appears, read: dose: 100.0 mg/kg/injection, schedule: Q01DX009 (ip), vehicle: Klucel (hydroxypropylcellulose) (HPC).
Where [4] appears, read: dose: 200.0 mg/kg/injection, schedule: Q01DX009 (ip), vehicle: Klucel (hydroxypropylcellulose) (HPC).
The mark [5] stands for this setting: dose: 400.0 mg/kg/injection, schedule: Q01DX009 (ip), vehicle: Klucel (hydroxypropylcellulose) (HPC).
Setting [6] is: dose: 100.0 mg/kg/injection, schedule: Q04DX003 (ip), vehicle: saline with Tween-80.
The mark [7] stands for this setting: dose: 400.0 mg/kg/injection, schedule: Q04DX003 (ip), vehicle: saline with Tween-80.
[8] abbreviates: dose: 25.0 mg/kg/injection, schedule: Q04DX002 (ip), vehicle: Klucel (hydroxypropylcellulose) (HPC).
Where [9] appears, read: dose: 12.5 mg/kg/injection, schedule: Q04DX003 (ip), vehicle: saline.
Setting [10] is: dose: 25.0 mg/kg/injection, schedule: Q04DX003 (ip), vehicle: saline.
The mark [11] stands for this setting: dose: 50.0 mg/kg/injection, schedule: Q04DX003 (ip), vehicle: saline.
The mark [12] stands for this setting: dose: 100.0 mg/kg/injection, schedule: Q01DX001 (ip), vehicle: saline.
Setting [13] is: dose: 200.0 mg/kg/injection, schedule: Q01DX001 (ip), vehicle: saline.
Where [14] appears, read: dose: 100.0 mg/kg/injection, schedule: Q04DX003 (ip), vehicle: Klucel (hydroxypropylcellulose) (HPC).
The mark [15] stands for this setting: dose: 200.0 mg/kg/injection, schedule: Q04DX003 (ip), vehicle: Klucel (hydroxypropylcellulose) (HPC).
[16] abbreviates: dose: 400.0 mg/kg/injection, schedule: Q04DX003 (ip), vehicle: Klucel (hydroxypropylcellulose) (HPC).
Where [17] appears, read: dose: 100.0 mg/kg/injection, schedule: Q01DX009 (ip), vehicle: saline with Tween-80.
Setting [18] is: dose: 200.0 mg/kg/injection, schedule: Q01DX009 (ip), vehicle: saline with Tween-80.

With `Nc1cc2c3c(cccc3c1Br)C(=O)OC2=O`, the T/C is 97 % of control under setting [1] and 108 % of control under setting [2].

As to `O=C1C(=O)c2ccccc2C(O)=C1Sc1ccc(Cl)cc1`, the T/C by setting is: (dose: 75.0 mg/kg/injection, schedule: Q01DX001 (ip), vehicle: carboxymethylcellulose (CMC)) 103 % of control; (dose: 150.0 mg/kg/injection, schedule: Q01DX001 (ip), vehicle: carboxymethylcellulose (CMC)) 98 % of control; (dose: 300.0 mg/kg/injection, schedule: Q01DX001 (ip), vehicle: carboxymethylcellulose (CMC)) 98 % of control.

`S=C(NCc1ccncc1)Nc1ccccc1Cl`: the T/C was 101 % of control under setting [3], 95 % of control under setting [4] and 98 % of control under setting [5].

For `O=C(CC(=O)Nc1ccc([N+](=O)[O-])cc1)Nc1ccc([N+](=O)[O-])cc1`, the T/C is, setting by setting: under setting [6], 87 % of control; under setting [7], 92 % of control.

Turning to `O=C(CC(CC(=O)c1ccccc1)c1ccccn1)c1ccccc1`, the T/C (dose: 50.0 mg/kg/injection, schedule: Q01DX001 (ip), vehicle: other) was 105 % of control; the T/C (dose: 100.0 mg/kg/injection, schedule: Q01DX001 (ip), vehicle: other) is 100 % of control; the T/C (dose: 200.0 mg/kg/injection, schedule: Q01DX001 (ip), vehicle: other) is 96 % of control; the T/C (dose: 400.0 mg/kg/injection, schedule: Q01DX001 (ip), vehicle: other) is 102 % of control.

On to `CC([NH-])C(C)[NH-].[Cl][Pt+2][Cl]` (stereo not drawn), for which the T/C is, setting by setting: (dose: 3.1 mg/kg/injection, schedule: Q04DX002 (ip), vehicle: Klucel (hydroxypropylcellulose) (HPC)) 124 % of control; (dose: 6.25 mg/kg/injection, schedule: Q04DX002 (ip), vehicle: Klucel (hydroxypropylcellulose) (HPC)) 153 % of control; under setting [8], 92 % of control.

For `CC(=O)c1ccc(CC23CC4CC(CC(C4)C2)C3)cc1`, the T/C is, setting by setting: under setting [3], 99 % of control; under setting [4], 90 % of control; under setting [5], 94 % of control.

As to `CCOc1ccc(NC(=O)COc2ccc(Cl)cc2Cl)cc1`, the T/C runs as follows: under setting [1], 89 % of control; under setting [2], 101 % of control; (dose: 400.0 mg/kg/injection, schedule: Q04DX002 (ip), vehicle: Klucel (hydroxypropylcellulose) (HPC)) 92 % of control.

As for `CC(N)c1ccccc1Cl` (stereo not drawn), the T/C was 107 % of control under setting [9], 96 % of control under setting [10] and 96 % of control under setting [11].

As for `N#CC(SC(=N)N)c1ccccc1` (stereo not drawn), the T/C under setting [12] is 103 % of control and the T/C under setting [13] is 96 % of control.

Turning to `CCCCOP(=S)(Nc1ccccc1)OCCCC`, the T/C was 107 % of control under setting [14], 107 % of control under setting [15] and 122 % of control under setting [16].

Consider `CNCC/C=C1\c2ccccc2CCSc2ccccc21`, for which the T/C by setting is: under setting [10], 98 % of control; under setting [11], 101 % of control; (dose: 100.0 mg/kg/injection, schedule: Q04DX003 (ip), vehicle: saline) 95 % of control and 101 % of control.

With `C=C(C)C1(CCCCC)C(=O)NC(=S)NC1=O`, the T/C by setting is: (dose: 75.0 mg/kg/injection, schedule: Q01DX001 (ip), vehicle: saline) 100 % of control; (dose: 150.0 mg/kg/injection, schedule: Q01DX001 (ip), vehicle: saline) 102 % of control; (dose: 300.0 mg/kg/injection, schedule: Q01DX001 (ip), vehicle: saline) 95 % of control.

Regarding `O=C(OC1c2ccccc2-c2ccccc21)c1cc([N+](=O)[O-])cc([N+](=O)[O-])c1`, the T/C was 97 % of control (dose: 100.0 mg/kg/injection, schedule: Q04DX002 (ip), vehicle: saline); 97 % of control (dose: 200.0 mg/kg/injection, schedule: Q04DX002 (ip), vehicle: saline); 90 % of control (dose: 400.0 mg/kg/injection, schedule: Q04DX002 (ip), vehicle: saline).

With `N#Cc1cnc(N)c(C#N)c1`, the T/C was 98 % of control (dose: 74.0 mg/kg/injection, schedule: Q01DX009 (ip), vehicle: Klucel (hydroxypropylcellulose) (HPC)) and 100 % of control (dose: 150.0 mg/kg/injection, schedule: Q01DX009 (ip), vehicle: Klucel (hydroxypropylcellulose) (HPC)).

Take `Nc1ccc(Oc2ccc(Cl)cc2)c(Cl)c1`: the T/C under setting [17] was 103 % of control; the T/C under setting [14] is 103 % of control; the T/C under setting [18] is 94 % of control; the T/C under setting [15] was 92 % of control; the T/C under setting [16] is 111 % of control.

In the case of `COC(=O)C1C=CCC(C(=O)OC)C1` (stereo not drawn), the T/C is 91 % of control under setting [17]; 109 % of control under setting [6]; 96 % of control under setting [18]; 96 % of control (dose: 200.0 mg/kg/injection, schedule: Q04DX003 (ip), vehicle: saline with Tween-80); 100 % of control (dose: 400.0 mg/kg/injection, schedule: Q01DX009 (ip), vehicle: saline with Tween-80); 93 % of control under setting [7].

Consider `CC(=O)N1Cc2ccc(C=O)n2Cc2cc3c(cc21)OCO3`, for which the T/C was 96 % of control under setting [8]; 104 % of control (dose: 50.0 mg/kg/injection, schedule: Q04DX002 (ip), vehicle: Klucel (hydroxypropylcellulose) (HPC)); 110 % of control under setting [1].

For the molecule `OCCN1CCN(CC/C=C2/c3ccccc3Sc3ccc(C(F)(F)F)cc32)CC1`, the T/C is, setting by setting: (dose: 0.78 mg/kg/injection, schedule: Q03HX024 (ip), vehicle: saline) 94 % of control; (dose: 1.56 mg/kg/injection, schedule: Q03HX024 (ip), vehicle: saline) 103 % of control; (dose: 2.0 mg/kg/injection, schedule: Q01DX009 (ip), vehicle: saline) 89 % of control; (dose: 2.5 mg/kg/injection, schedule: Q01DX009 (ip), vehicle: saline) 114 % of control; (dose: 3.12 mg/kg/injection, schedule: Q03HX024 (ip), vehicle: saline) 105 % of control; (dose: 4.0 mg/kg/injection, schedule: Q01DX009 (ip), vehicle: saline) 98 % of control. In addition, the T/C was 103 % of control (dose: 5.0 mg/kg/injection, schedule: Q01DX009 (ip), vehicle: saline); 101 % of control (dose: 6.25 mg/kg/injection, schedule: Q04DX003 (ip), vehicle: saline); 93 % of control (dose: 8.0 mg/kg/injection, schedule: Q01DX009 (ip), vehicle: saline); 116 % of control (dose: 10.0 mg/kg/injection, schedule: Q01DX009 (ip), vehicle: saline); 115 % of control (dose: 10.0 mg/kg/injection, schedule: Q04DX003 (ip), vehicle: saline); 110 % of control under setting [9]. Besides, the T/C is, setting by setting: (dose: 18.75 mg/kg/injection, schedule: Q01DX001 (ip), vehicle: saline) 107 % of control; (dose: 20.0 mg/kg/injection, schedule: Q01DX009 (ip), vehicle: saline) 95 % of control; (dose: 37.5 mg/kg/injection, schedule: Q01DX001 (ip), vehicle: saline) 117 % of control; under setting [11], 121 % of control.

In the case of `OCCCN=Cc1cc(Cl)cc(Cl)c1O`, the T/C is 98 % of control under setting [12]; 95 % of control under setting [13]; 93 % of control (dose: 400.0 mg/kg/injection, schedule: Q01DX001 (ip), vehicle: saline).

On to `CC1(C)CC(OP(=O)(Cl)OC2CC(C)(C)N(O)C(C)(C)C2)CC(C)(C)N1O`, for which the T/C reads like this: (dose: 100.0 mg/kg/injection, schedule: Q01DX001 (ip), vehicle: water) 97 % of control; (dose: 200.0 mg/kg/injection, schedule: Q01DX001 (ip), vehicle: water) 94 % of control; (dose: 400.0 mg/kg/injection, schedule: Q01DX001 (ip), vehicle: water) 94 % of control.
